The text below walks through data of patent US10233173B2, “Substituted 1,2,3-triazoles as NR2B-selective NMDA modulators” (JANSSEN PHARMACEUTICA NV, priority 2016, dated 2019).

In the test the target is human GluN1/GluN2B NMDA receptors (Homo sapiens, UniProt Q05586+Q13224). As to the kind of experiment: Cell-based calcium flux (FLIPR) assay on cloned human NR1/NR2B ion channels expressed in mammalian cells. The conditions noted are these: standard assay; glutamate at ~EC80; FLIPR calcium flux. Put shortly: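 Calcium influx followed by FLIPR fluorescence after 5 min compound exposure and a further 5 min co-agonist challenge: 10 μM glycine with glutamate at ~EC80 (standard) or EC40 (HTS).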
In general terms: Calcium flux is commonly read through the fluorescence of an indicator in the cells.

Chain of human GluN1/GluN2B NMDA receptors (Q13224 27-1484, other chains not shown): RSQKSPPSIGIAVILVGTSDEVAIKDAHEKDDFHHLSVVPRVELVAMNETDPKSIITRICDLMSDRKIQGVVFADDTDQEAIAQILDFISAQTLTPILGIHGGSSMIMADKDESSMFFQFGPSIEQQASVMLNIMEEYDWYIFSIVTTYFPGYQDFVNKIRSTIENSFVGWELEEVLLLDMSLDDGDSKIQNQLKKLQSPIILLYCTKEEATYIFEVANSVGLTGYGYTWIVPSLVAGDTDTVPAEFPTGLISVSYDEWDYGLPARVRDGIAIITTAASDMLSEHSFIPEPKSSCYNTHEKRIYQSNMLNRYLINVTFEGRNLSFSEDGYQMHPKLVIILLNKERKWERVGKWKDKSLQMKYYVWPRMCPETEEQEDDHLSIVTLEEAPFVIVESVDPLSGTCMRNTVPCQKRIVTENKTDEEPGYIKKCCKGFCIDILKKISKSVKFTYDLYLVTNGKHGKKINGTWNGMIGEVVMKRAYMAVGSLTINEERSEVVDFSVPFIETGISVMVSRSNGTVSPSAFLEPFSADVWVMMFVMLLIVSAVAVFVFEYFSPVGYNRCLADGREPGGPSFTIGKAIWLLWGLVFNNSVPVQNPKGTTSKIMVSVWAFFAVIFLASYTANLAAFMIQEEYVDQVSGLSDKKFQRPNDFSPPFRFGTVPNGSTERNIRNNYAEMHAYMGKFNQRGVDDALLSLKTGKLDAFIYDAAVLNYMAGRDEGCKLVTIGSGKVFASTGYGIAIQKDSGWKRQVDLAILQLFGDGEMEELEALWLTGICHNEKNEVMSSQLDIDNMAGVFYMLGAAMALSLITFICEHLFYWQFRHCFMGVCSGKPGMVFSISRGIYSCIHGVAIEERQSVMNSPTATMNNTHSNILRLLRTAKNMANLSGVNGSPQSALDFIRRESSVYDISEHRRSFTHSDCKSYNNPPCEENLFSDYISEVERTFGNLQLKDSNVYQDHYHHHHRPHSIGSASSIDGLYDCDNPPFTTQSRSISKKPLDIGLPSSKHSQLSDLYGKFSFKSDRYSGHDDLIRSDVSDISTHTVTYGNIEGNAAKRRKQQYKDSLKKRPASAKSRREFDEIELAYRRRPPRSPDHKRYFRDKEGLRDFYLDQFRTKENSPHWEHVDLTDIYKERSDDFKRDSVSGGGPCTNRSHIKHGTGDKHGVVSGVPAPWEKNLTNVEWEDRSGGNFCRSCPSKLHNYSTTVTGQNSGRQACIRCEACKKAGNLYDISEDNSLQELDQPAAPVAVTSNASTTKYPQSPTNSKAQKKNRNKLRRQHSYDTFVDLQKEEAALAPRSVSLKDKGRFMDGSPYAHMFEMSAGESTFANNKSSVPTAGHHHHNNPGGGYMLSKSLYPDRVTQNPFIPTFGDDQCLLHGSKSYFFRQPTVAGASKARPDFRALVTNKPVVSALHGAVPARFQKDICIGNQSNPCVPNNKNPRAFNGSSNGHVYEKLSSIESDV

Consider `Cc1ccc(OCc2cn(-c3ccc(F)c(C(C)(F)F)c3)nn2)nc1C` [Example 560, 6-[[1-[3-(1,1-Difluoroethyl)-4-fluoro-phenyl]triazol-4-yl]methoxy]-2,3-dimethyl-pyridine], for which the IC50 was 0.052 µM.
Turning to `COc1ncccc1OCc1cn(-c2ccc(F)c(C(C)(F)F)c2)nn1` [Example 561, 3-[[1-[3-(1,1-Difluoroethyl)-4-fluoro-phenyl]triazol-4-yl]methoxy]-2-methoxy-pyridine], the IC50 was 0.476 µM.
For `CC(F)(F)c1cc(-n2cc(COc3ncc(C(F)F)cn3)nn2)ccc1F` [Example 562, 2-[[1-[3-(1,1-Difluoroethyl)-4-fluoro-phenyl]triazol-4-yl]methoxy]-5-(difluoromethyl)pyrimidine] the value was 0.014 µM.
As for `CC(F)(F)c1cc(-n2cc(COc3nccc(C(F)F)n3)nn2)ccc1F` [Example 563, 2-[[1-[3-(1,1-Difluoroethyl)-4-fluoro-phenyl]triazol-4-yl]methoxy]-4-(difluoromethyl)pyrimidine], the figure is 0.048 µM.
As for `CC(F)(F)c1cc(-n2cc(COc3nccc(C(F)(F)F)n3)nn2)ccc1F` [Example 564, 2-[[1-[3-(1,1-Difluoroethyl)-4-fluoro-phenyl]triazol-4-yl]methoxy]-4-(trifluoromethyl)pyrimidine], the figure is 0.272 µM; as for `CC(C)(O)c1cnc(OCc2cn(-c3ccc(F)c(C(C)(F)F)c3)nn2)nc1` [Example 566, 2-[2-[[1-[3-(1,1-Difluoroethyl)-4-fluoro-phenyl]triazol-4-yl]methoxy]pyrimidin-5-yl]propan-2-ol], 0.008 µM; as for `COC(C)(C)c1cnc(OCc2cn(-c3ccc(F)c(C(C)(F)F)c3)nn2)nc1` [Example 567, 2-[[1-[3-(1,1-Difluoroethyl)-4-fluoro-phenyl]triazol-4-yl]methoxy]-5-(1-methoxy-1-methyl-ethyl)pyrimidine], 4.63 µM.
Consider `CC(F)(F)c1cc(-n2cc(COc3nccc(CO)n3)nn2)ccc1F` [Example 568, [2-[[1-[3-(1,1-Difluoroethyl)-4-fluoro-phenyl]triazol-4-yl]methoxy]pyrimidin-4-yl]methanol], for which the IC50 worked out at 0.025 µM.
For `COCc1cnc(OCc2cn(-c3ccc(F)c(C(C)(F)F)c3)nn2)nc1` [Example 569, 2-[[1-[3-(1,1-Difluoroethyl)-4-fluoro-phenyl]triazol-4-yl]methoxy]-5-(methoxymethyl)pyrimidine] the value was 0.089 µM; for `COCc1ccnc(OCc2cn(-c3ccc(F)c(C(C)(F)F)c3)nn2)n1` [Example 570, 2-[[1-[3-(1,1-Difluoroethyl)-4-fluoro-phenyl]triazol-4-yl]methoxy]-4-(methoxymethyl)pyrimidine], 0.011 µM; for `CC(F)(F)c1cc(-n2cc(COc3ncc(CO)cn3)nn2)ccc1F` [Example 571, [2-[[1-[3-(1,1-difluoroethyl)-4-fluoro-phenyl]triazol-4-yl]methoxy]pyrimidin-5-yl]methanol], 0.021 µM.
For `CC(F)(F)c1cc(-n2cc(COc3ncc(OC(F)F)cn3)nn2)ccc1F` [Example 572, 2-[[1-[3-(1,1-Difluoroethyl)-4-fluoro-phenyl]triazol-4-yl]methoxy]-5-(difluoromethoxy)pyrimidine] the value was 0.025 µM; for `Cc1cnc(OCc2cn(-c3ccc(F)c(C(C)(F)F)c3)nn2)nc1C` [Example 573, 2-[[1-[3-(1,1-Difluoroethyl)-4-fluoro-phenyl]triazol-4-yl]methoxy]-4,5-dimethyl-pyrimidine], 0.019 µM.
For `Cc1nc(OCc2cn(-c3ccc(F)c(C(C)(F)F)c3)nn2)ncc1Cl` [Example 574, 5-Chloro-2-[[1-[3-(1,1-difluoroethyl)-4-fluoro-phenyl]triazol-4-yl]methoxy]-4-methyl-pyrimidine] the value was 0.01 µM.
Regarding `Cc1nc(OCc2cn(-c3ccc(F)c(C(C)(F)F)c3)nn2)ncc1F` [Example 575, 2-[[1-[3-(1,1-Difluoroethyl)-4-fluoro-phenyl]triazol-4-yl]methoxy]-5-fluoro-4-methyl-pyrimidine], the IC50 is 0.006 µM.
As to `Cc1cnc(OCc2cn(-c3ccc(F)c(C(C)(F)F)c3)nn2)nc1N` [Example 576, 2-[[1-[3-(1,1-Difluoroethyl)-4-fluoro-phenyl]triazol-4-yl]methoxy]-5-methyl-pyrimidin-4-amine], the IC50 stood at 0.017 µM.
In the case of `CNc1nc(OCc2cn(-c3ccc(F)c(C(C)(F)F)c3)nn2)ncc1C` [Example 577, 2-[[1-[3-(1,1-Difluoroethyl)-4-fluoro-phenyl]triazol-4-yl]methoxy]-N,5-dimethyl-pyrimidin-4-amine], the IC50 turned out to be 0.128 µM.
Take `CNc1nc(OCc2cn(-c3ccc(F)c(C(C)(F)F)c3)nn2)ncc1F` [Example 578, 2-[[1-[3-(1,1-Difluoroethyl)-4-fluoro-phenyl]triazol-4-yl]methoxy]-5-fluoro-N-methyl-pyrimidin-4-amine]: the IC50 came to 0.14 µM.
For `Cc1cnc(OCc2cn(-c3ccc(F)c(C(C)(F)F)c3)nn2)nc1N(C)C` [Example 579, 2-[[1-[3-(1,1-Difluoroethyl)-4-fluoro-phenyl]triazol-4-yl]methoxy]-N,N,5-trimethyl-pyrimidin-4-amine] the value was 0.087 µM; for `CC(F)(F)c1cc(-n2cc(COc3nccc(N)n3)nn2)ccc1F` [Example 580, 2-[[1-[3-(1,1-Difluoroethyl)-4-fluoro-phenyl]triazol-4-yl]methoxy]pyrimidin-4-amine], 0.088 µM; for `CNc1ccnc(OCc2cn(-c3ccc(F)c(C(C)(F)F)c3)nn2)n1` [Example 581, 2-[[1-[3-(1,1-Difluoroethyl)-4-fluoro-phenyl]triazol-4-yl]methoxy]-N-methyl-pyrimidin-4-amine], 0.033 µM.
In the case of `CN(C)c1ccnc(OCc2cn(-c3ccc(F)c(C(C)(F)F)c3)nn2)n1` [Example 582, 2-[[1-[3-(1,1-Difluoroethyl)-4-fluoro-phenyl]triazol-4-yl]methoxy]-N,N-dimethyl-pyrimidin-4-amine], the IC50 is 0.028 µM.
For `CC(F)(F)c1cc(-n2cc(COc3ncc(C#N)cn3)nn2)ccc1F` [Example 583, 2-[[1-[3-(1,1-Difluoroethyl)-4-fluoro-phenyl]triazol-4-yl]methoxy]pyrimidine-5-carbonitrile] the value was 0.067 µM; for `CC(F)(F)c1cc(-n2cc(COc3ncc(S(C)(=O)=O)cn3)nn2)ccc1F` [Example 584, 2-[[1-[3-(1,1-Difluoroethyl)-4-fluoro-phenyl]triazol-4-yl]methoxy]-5-methylsulfonyl-pyrimidine], 0.199 µM; for `CC(=O)c1cnc(OCc2cn(-c3ccc(F)c(C(C)(F)F)c3)nn2)nc1` [Example 585, 1-[2-[[1-[3-(1,1-Difluoroethyl)-4-fluoro-phenyl]triazol-4-yl]methoxy]pyrimidin-5-yl]ethanone], 0.011 µM.
As for `CC(F)(F)c1cc(-n2cc(COc3ncc(C4CC4)cn3)nn2)ccc1F` [Example 587, 5-Cyclopropyl-2-[[1-[3-(1,1-difluoroethyl)-4-fluoro-phenyl]triazol-4-yl]methoxy]pyrimidine], the IC50 amounted to 0.041 µM.
For `CC(F)(F)c1cc(-n2cc(COc3ncc(N4CCC4)cn3)nn2)ccc1F` [Example 588, 5-(Azetidin-1-yl)-2-[[1-[3-(1,1-difluoroethyl)-4-fluoro-phenyl]triazol-4-yl]methoxy]pyrimidine] the value was 0.034 µM; for `CC(F)(F)c1cc(-n2cc(COc3ncc(N4CC(F)C4)cn3)nn2)ccc1F` [Example 589, 2-((1-(3-(1,1-Difluoroethyl)-4-fluorophenyl)-1H-1,2,3-triazol-4-yl)methoxy)-5-(3-fluoroazetidin-1-yl)pyrimidine], 0.013 µM; for `CN(C)c1cnc(OCc2cn(-c3ccc(F)c(C(C)(F)F)c3)nn2)nc1` [Example 590, 2-((1-(3-(1,1-Difluoroethyl)-4-fluorophenyl)-1H-1,2,3-triazol-4-yl)methoxy)-N,N-dimethylpyrimidin-5-amine], 0.039 µM.
For `CC(F)(F)c1cc(-n2cc(COc3nccc(N4CCCC4)n3)nn2)ccc1F` [Example 591, 2-[[1-[3-(1,1-Difluoroethyl)-4-fluoro-phenyl]triazol-4-yl]methoxy]-4-pyrrolidin-1-yl-pyrimidine], the IC50 is 0.016 µM.
Regarding `CC(F)(F)c1cc(-n2cc(COc3nccc(N4CCCCC4)n3)nn2)ccc1F` [Example 592, 2-[[1-[3-(1,1-Difluoroethyl)-4-fluoro-phenyl]triazol-4-yl]methoxy]-4-(1-piperidyl)pyrimidine], the IC50 was 0.271 µM.
Turning to `CCc1cnc(OCc2nnn(-c3ccc(F)c(C(C)(F)F)c3)c2C)nc1` [Example 593, 2-[[1-[3-(1,1-Difluoroethyl)-4-fluoro-phenyl]-5-methyl-triazol-4-yl]methoxy]-5-ethyl-pyrimidine], the IC50 worked out at 0.486 µM.
For `Cc1c(COc2ncc(C3CC3)cn2)nnn1-c1ccc(F)c(C(C)(F)F)c1` [Example 594, 5-Cyclopropyl-2-[[1-[3-(1,1-difluoroethyl)-4-fluoro-phenyl]-5-methyl-triazol-4-yl]methoxy]pyrimidine], the IC50 is 0.171 µM.
On to `Cc1cnc(OCc2nnn(-c3ccc(F)c(C(C)(F)F)c3)c2C)nc1C` [Example 595, 2-[[1-[3-(1,1-Difluoroethyl)-4-fluoro-phenyl]-5-methyl-triazol-4-yl]methoxy]-4,5-dimethyl-pyrimidine], for which the IC50 turned out to be 0.706 µM.
Consider `Cc1nc(OCc2nnn(-c3ccc(F)c(C(C)(F)F)c3)c2C)ncc1Cl` [Example 596, 5-Chloro-2-[[1-[3-(1,1-difluoroethyl)-4-fluoro-phenyl]-5-methyl-triazol-4-yl]methoxy]-4-methyl-pyrimidine], for which the IC50 was found to be 0.601 µM.
As for `Fc1ccc(-n2cc(COc3ncccn3)nn2)cc1F` [Example 597, 2-[[1-(3,4-Difluorophenyl)triazol-4-yl]methoxy]pyrimidine], the IC50 came out at 2.1 µM.
As for `Fc1cnc(OCc2cn(-c3ccc(F)c(F)c3)nn2)nc1` [Example 598, 2-[[1-(3,4-Difluorophenyl)triazol-4-yl]methoxy]-5-fluoro-pyrimidine], the figure is 1.45 µM.

The term IC50 denotes the concentration that inhibits the measured activity by half.
